Reference: patent US20240317744A1, “Bicyclic Ureas As Kinase Inhibitors” (Incyte Corporation, priority 2023, published 2024)

Columns and labels:
[1] = target: T1, catalytic domain (JH1, amino acids 826-1132) of human JAK2 (Homo sapiens, UniProt O60674); experiment: JAK2 LanthaScreen JH1 Binding Assay; conditions: JAK2 JH1 1.5 nM, 50 nM tracer, 2 hours at 25° C.; read-out: JH1 BIND
T1 construct: catalytic domain (JH1, amino acids 826-1132) of human JAK2; FLAG (N); biotin (biotinylated); purchased Carna Biosciences 08-445-20N; host or cells: baculovirus expression system
Summary of the method: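 TR-FRET tracer-displacement format: compound IC50 from four-parameter curves after 2 h at 25° C. Reaction held 1.5 nM biotinylated, FLAG-tagged JH1 (aa 826-1132), 50 nM tracer, 0.5 nM Streptavidin-Tb, pH 7.5 Tris buffer; 2 mM ATP set nonspecific background.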

[2] = target: T2, pseudo-kinase domain (JH2, amino-acids 536-812) of human Wild Type JAK2 (Homo sapiens, UniProt O60674, F794H/W659A/W777A); experiment: JAK2 LanthaScreen JH2-WT Binding Assay; conditions: JAK2 JH2-WT 0.145 nM, 50 nM tracer, 1 hour at 25° C.; read-out: JH2 BIND WT
T2 construct: pseudo-kinase domain (JH2, amino-acids 536-812 with 3 surface mutations W659A, W777A, F794H); His (C); purchased BPS Bioscience 79463; host or cells: baculovirus expression system
Summary of the method: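 TR-FRET tracer displacement: 0.145 nM biotinylated JH2 protein, 50 nM fluorescent tracer, 0.25 nM streptavidin-Tb, compound dilution series; 50 mM Tris pH 7.5, 10 mM MgCl2, 5 mM DTT; 1 h, 25° C. Non-specific binding with 2 mM ATP. IC50 by 4-parameter fit.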

[3] = target: T3, pseudo-kinase domain (JH2, amino-acids 536-812) of human V617F mutant JAK2 (Homo sapiens, UniProt O60674, F794H/V617F/W659A/W777A); experiment: JAK2 LanthaScreen JH2-V617F Binding Assay; conditions: JAK2 JH2-V617F 0.26 nM, 50 nM tracer, 1 hour at 25° C.; read-out: JH2 BIND V617F
T3 construct: pseudo-kinase domain (JH2, amino-acids 536-812 with 3 surface mutations W659A, W777A, F794H); His (C); purchased BPS Bioscience 79498; host or cells: baculovirus expression system
Summary of the method: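 Binding was measured as TR-FRET displacement of 50 nM tracer from 0.26 nM biotinylated His-Avi protein, incubated one hour at 25° C; IC50 from a four-parameter fit.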

[4] = target: catalytic domain (JH1, amino acids 808-1132) of human JAK2 (Homo sapiens, UniProt O60674); experiment: JAK2 HTRF Enzyme Activity Assay; assay type: biochemical; conditions: ATP 30 µM, 60 minutes at 25° C.; read-out: V617F ENZ 30 UM
Chain of catalytic domain (JH1, amino acids 808-1132) of human JAK2 (O60674 808-1132 limits assumed): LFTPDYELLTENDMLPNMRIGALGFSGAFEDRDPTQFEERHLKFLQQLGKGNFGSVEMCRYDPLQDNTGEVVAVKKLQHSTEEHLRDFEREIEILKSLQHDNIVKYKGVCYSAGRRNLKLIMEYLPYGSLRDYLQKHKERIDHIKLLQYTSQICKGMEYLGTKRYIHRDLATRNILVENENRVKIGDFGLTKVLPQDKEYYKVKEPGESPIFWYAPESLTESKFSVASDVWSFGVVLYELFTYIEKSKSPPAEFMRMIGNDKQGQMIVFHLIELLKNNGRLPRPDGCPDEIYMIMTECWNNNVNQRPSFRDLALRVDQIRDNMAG

T1 sequence (O60674 826-1132): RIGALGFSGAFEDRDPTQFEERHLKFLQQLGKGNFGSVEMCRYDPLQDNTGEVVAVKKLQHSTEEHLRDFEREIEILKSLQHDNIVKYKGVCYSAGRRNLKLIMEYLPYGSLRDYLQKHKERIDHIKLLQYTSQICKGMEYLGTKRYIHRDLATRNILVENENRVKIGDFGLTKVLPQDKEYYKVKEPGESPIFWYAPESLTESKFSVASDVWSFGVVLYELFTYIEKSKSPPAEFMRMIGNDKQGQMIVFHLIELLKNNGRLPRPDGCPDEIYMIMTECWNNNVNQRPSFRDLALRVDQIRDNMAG
T3 sequence (O60674 536-812 V617F/W659A/W777A/F794H): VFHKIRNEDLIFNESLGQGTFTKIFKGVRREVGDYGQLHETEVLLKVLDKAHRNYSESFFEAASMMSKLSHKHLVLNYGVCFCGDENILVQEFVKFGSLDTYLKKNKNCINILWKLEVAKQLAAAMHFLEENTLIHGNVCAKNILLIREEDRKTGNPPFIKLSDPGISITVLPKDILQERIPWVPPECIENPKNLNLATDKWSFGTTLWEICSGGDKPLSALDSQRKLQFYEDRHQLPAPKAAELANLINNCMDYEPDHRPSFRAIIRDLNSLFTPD
T2 sequence (O60674 536-812 W659A/W777A/F794H): as the sequence (O60674 536-812 V617F/W659A/W777A/F794H) above, with F82V counted along it

| SMILES | IC50 [1] [nM] | IC50 [2] [nM] | IC50 [3] [nM] | IC50 [4] [nM] |
| --- | --- | --- | --- | --- |
| COC(=O)N[C@@H]1CC[C@@H](n2c(=O)n(C)c3cnc(Nc4ccnc(N5CCCCC5)n4)cc32)C1 [Example 66, Methyl ((1R,3R)-3-(3-methyl-2-oxo-6-((2-(piperidin-1-yl)pyrimidin-4-yl)amino)-2,3-dihydro-1H-imidazo[4,5-c]pyridin-1-yl)cyclopentyl)carbamate] | > 1000 | ≤ 10 | 10 to 100 | > 1000 |
| COC(=O)N[C@@H]1CC[C@@H](n2c(=O)n(C)c3cnc(Nc4cc(C)nc(N5CCC(F)(F)C5)n4)cc32)C1 [Example 84, Methyl ((1R,3R)-3-(6-((2-(3,3-difluoropyrrolidin-1-yl)-6-methylpyrimidin-4-yl)amino)-3-methyl-2-oxo-2,3-dihydro-1H-imidazo[4,5-c]pyridin-1-yl)cyclopentyl)carbamate] | > 1000 | ≤ 10 | ≤ 10 | > 1000 |
| [2H]C([2H])([2H])n1c(=O)n([C@@H]2CC[C@@H](NC(=O)OC)C2)c2cc(Nc3cc(CO)nc(-c4ccc(C(F)F)s4)n3)ncc21 [Example 103, Methyl ((1R,3R)-3-(6-((2-(5-(difluoromethyl)thiophen-2-yl)-6-(hydroxymethyl)pyrimidin-4-yl)amino)-3-(methyl-d3)-2-oxo-2,3-dihydro-1H-imidazo[4,5-c]pyridin-1-yl)cyclopentyl)carbamate] | > 1000 | ≤ 10 | ≤ 10 | > 1000 |
| COC(=O)N[C@@H]1CC[C@@H](n2c(=O)n(C)c3cnc(Nc4nc(-c5ccncc5)cs4)cc32)C1 [Example 68, Methyl ((1R,3R)-3-(3-methyl-2-oxo-6-((4-(pyridin-4-yl)thiazol-2-yl)amino)-2,3-dihydro-1H-imidazo[4,5-c]pyridin-1-yl)cyclopentyl)carbamate] | > 1000 | 500 to 1000 | 500 to 1000 | > 1000 |
| [2H]C([2H])([2H])n1c(=O)n([C@@H]2CC[C@@](C)(NC(=O)C3CC3)C2)c2cc(Nc3cc(C(=O)N4CCOCC4)c4cccc(C(F)(F)F)c4n3)ncc21 [Example 116, N-((1R,3R)-1-methyl-3-(3-(methyl-d3)-6-((4-(morpholine-4-carbonyl)-8-(trifluoromethyl)quinolin-2-yl)amino)-2-oxo-2,3-dihydro-1H-imidazo[4,5-c]pyridin-1-yl)cyclopentyl)cyclopropanecarboxamide] | 100 to 500 | ≤ 10 | ≤ 10 | 100 to 500 |
| [2H]C([2H])([2H])n1c(=O)n([C@@H]2CC[C@](C)(NC(=O)C3CC3)C2)c2cc(Nc3cc(CO)c4nn(C)c(-c5cnn(C(F)(F)F)c5)c4n3)ncc21 [Example 117, N-((1S,3R)-3-(6-((7-(hydroxymethyl)-2-methyl-3-(1-(trifluoromethyl)-1H-pyrazol-4-yl)-2H-pyrazolo[4,3-b]pyridin-5-yl)amino)-3-(methyl-d3)-2-oxo-2,3-dihydro-1H-imidazo[4,5-c]pyridin-1-yl)-1-methylcyclopentyl)cyclopropanecarboxamide] | > 1000 | ≤ 10 | ≤ 10 | > 1000 |
| COC(=O)N[C@@H]1CC[C@@H](n2c(=O)n(C)c3cnc(Nc4ccnc(N5CCC(F)(F)C5)n4)cc32)C1 [Example 78, Methyl ((1R,3R)-3-(6-((2-(3,3-difluoropyrrolidin-1-yl)pyrimidin-4-yl)amino)-3-methyl-2-oxo-2,3-dihydro-1H-imidazo[4,5-c]pyridin-1-yl)cyclopentyl)carbamate] | > 1000 | ≤ 10 | ≤ 10 | > 1000 |
| COC(=O)N[C@@H]1CC[C@@H](n2c(=O)n(C)c3cnc(Nc4cccc(C(=O)NC5CCCCC5)n4)cc32)C1 [Example 87, Methyl ((1R,3R)-3-(6-((6-(cyclohexylcarbamoyl)pyridin-2-yl)amino)-3-methyl-2-oxo-2,3-dihydro-1H-imidazo[4,5-c]pyridin-1-yl)cyclopentyl)carbamate] | > 1000 | ≤ 10 | 10 to 100 | > 1000 |
| [2H]C([2H])([2H])n1c(=O)n([C@@H]2CC[C@@H](NC(=O)OC)C2)c2cc(Nc3cc(C(=O)N4CCOCC4)cc(-c4ccc5c(c4)OCCO5)n3)ncc21 [Example 82, Methyl ((1R,3R)-3-(6-((6-(2,3-dihydrobenzo[b][1,4]dioxin-6-yl)-4-(morpholine-4-carbonyl)pyridin-2-yl)amino)-3-(methyl-d3)-2-oxo-2,3-dihydro-1H-imidazo[4,5-c]pyridin-1-yl)cyclopentyl)carbamate] | > 1000 | ≤ 10 | ≤ 10 | > 1000 |
| [2H]C([2H])([2H])n1c(=O)n([C@@H]2CC[C@@H](NC(=O)OC)C2)c2cc(Nc3cc(C(=O)N4CCOC5CC54)c4cccc(C(F)(F)F)c4n3)ncc21 (stereo partly drawn) [Example 13, Methyl ((1R,3R)-3-(6-((4-(2-oxa-5-azabicyclo[4.1.0]heptane-5-carbonyl)-8-(trifluoromethyl)quinolin-2-yl)amino)-3-(methyl-d3)-2-oxo-2,3-dihydro-1H-imidazo[4,5-c]pyridin-1-yl)cyclopentyl)carbamate] | 500 to 1000 | ≤ 10 | ≤ 10 | 500 to 1000 |
| COC(=O)N[C@@H]1CC[C@@H](n2c(=O)n(C)c3cnc(Nc4ccnc(N5CCC(C(F)(F)F)CC5)n4)cc32)C1 [Example 79, Methyl ((1R,3R)-3-(3-methyl-2-oxo-6-((2-(4-(trifluoromethyl)piperidin-1-yl)pyrimidin-4-yl)amino)-2,3-dihydro-1H-imidazo[4,5-c]pyridin-1-yl)cyclopentyl)carbamate] | > 1000 | ≤ 10 | ≤ 10 | > 1000 |
| [2H]C([2H])([2H])n1c(=O)n([C@@H]2CC[C@@H](NC(=O)OC)C2)c2cc(Nc3ccc4c(n3)n(-c3cnn(C(F)F)c3)c(=O)n4CC3(C#N)CC3)ncc21 [Example 114, Methyl ((1R,3R)-3-(6-((1-((1-cyanocyclopropyl)methyl)-3-(1-(difluoromethyl)-1H-pyrazol-4-yl)-2-oxo-2,3-dihydro-1H-imidazo[4,5-b]pyridin-5-yl)amino)-3-(methyl-d3)-2-oxo-2,3-dihydro-1H-imidazo[4,5-c]pyridin-1-yl)cyclopentyl)carbamate] | > 1000 | ≤ 10 | ≤ 10 | > 1000 |
| COC(=O)Nc1cc(Nc2cc3c(cn2)n(C)c(=O)n3[C@@H]2CC[C@@H](NC(=O)OC)C2)cc(C2CCN(C)CC2)c1 [Example 15, Methyl (3-((1-((1R,3R)-3-((methoxycarbonyl)amino)cyclopentyl)-3-methyl-2-oxo-2,3-dihydro-1H-imidazo[4,5-c]pyridin-6-yl)amino)-5-(1-methylpiperidin-4-yl)phenyl)carbamate] | > 1000 | ≤ 10 | 10 to 100 | > 1000 |
| COC(=O)Nc1cc(Nc2cc3c(cn2)n(C)c(=O)n3[C@@H]2CC[C@@H](NC(=O)OC)C2)cc(-c2cn(C)nn2)c1 [Example 14, Methyl (3-((1-((1R,3R)-3-((methoxycarbonyl)amino)cyclopentyl)-3-methyl-2-oxo-2,3-dihydro-1H-imidazo[4,5-c]pyridin-6-yl)amino)-5-(1-methyl-1H-1,2,3-triazol-4-yl)phenyl)carbamate] | > 1000 | ≤ 10 | 10 to 100 | > 1000 |
